In brackets after ≈: the same amount, converted by molar mass.
Conditions: buffer; pH 7.4; 200.0 µM

Compared with `C=C(C)CN(CC)c1ccc(N2C(=O)CCCC2=O)cc1[N+](=O)[O-]`, `CC1CCCC(C)N1C(=O)Cn1cnc2cc([N+](=O)[O-])ccc2c1=O` (stereo unspecified) is higher in solubility kinetic: 17.8 µg/mL (≈ 53.7 µM) for the first, > 51.7 µg/mL for the second.

Compared with `Cc1ccc(Oc2ncnc(N)c2[N+](=O)[O-])cc1C`, `Cc1cc2c(c(=O)o1)C(c1ccc([N+](=O)[O-])o1)C(C#N)=C(N)O2` (stereo unspecified) is higher in solubility kinetic: 4.8 µg/mL (≈ 18.4 µM) for the first, > 47.3 µg/mL for the second.

`O=C(C1=C(O)C(=O)N(Cc2cccnc2)C1c1cccc(Oc2ccccc2)c1)c1ccco1` (stereo unspecified) and `CC(C)(C)C(=O)C1=C(O)C(=O)N(Cc2ccccc2)C1c1ccccc1F` (stereo unspecified) cannot be ordered by solubility kinetic: > 67.9 µg/mL for the first, > 55.1 µg/mL for the second.

First: CCN(C(=O)COC(=O)c1ccc([N+](=O)[O-])o1)c1cccc2ccccc12
Second: Cc1ccc(NC(=O)c2cccc3ccccc23)cc1
The solubility kinetic of the first is higher: 33.7 µg/mL (≈ 91.5 µM) for the first, < 0.6 µg/mL for the second.

Compared with `CC(=O)N(C)c1ccc(C(O)(C(F)(F)F)C(F)(F)F)cc1`, `CC(C)(C)C(=O)NC(=O)Nc1ccccc1C(F)(F)F` is lower in solubility kinetic: > 47.3 µg/mL for the first, 3.3 µg/mL (≈ 11.4 µM) for the second.

`Cc1cccc(C)c1OCC(O)CN1CCc2ccccc2C1.Cl` (stereo unspecified) and `COc1ccccc1OCC(O)CN1CCN(CC(=O)Nc2c(C)cccc2C)CC1.Cl` (stereo unspecified) cannot be ordered by solubility kinetic: > 52.2 µg/mL for the first, > 75.1 µg/mL for the second.

Compared with `Cc1ccc(CC2CC(=O)N(CCc3ccccc3)C2=O)cc1` (stereo unspecified), `Cc1ccc(Cn2c(=S)[nH]c3ccccc3c2=O)cc1` is lower in solubility kinetic: 2.9 µg/mL (≈ 9.43 µM) for the first, < 0.3 µg/mL for the second.

`Cc1ccc([N+](=O)[O-])cc1NC(=O)/C=C/C(=O)O` and `Cc1cc(Br)ccc1NC(=O)C1C2CCC(O2)C1C(=O)O` (stereo unspecified) cannot be ordered by solubility kinetic: > 37.5 µg/mL for the first, > 53.1 µg/mL for the second.

`Cc1ccc(CCN2CC(C(=O)NC(C)C)CC2=O)cc1` (stereo unspecified) and `CCc1ccc(N2CC(C(=O)OC)CC2=O)cc1` (stereo unspecified) cannot be ordered by solubility kinetic: > 43.3 µg/mL for the first, > 37.1 µg/mL for the second.

`CNC(=S)N1CCC(c2nc3ccccc3s2)CC1` and `Cc1nnc2c(N3CCN(CCO)CC3)nc3ccccc3n12` cannot be ordered by solubility kinetic: > 43.7 µg/mL for the first, > 46.9 µg/mL for the second.

`Nc1ccc(S(=O)(=O)[O-])cn1.[Na+]` and `CCCCCC(=O)Nc1cccc(S(=O)(=O)NC2=NCCC2)c1` cannot be ordered by solubility kinetic: > 29.4 µg/mL for the first, > 50.6 µg/mL for the second.

Compared with `Cc1ccc2c(c1)N(C(C)C(=O)NCc1ccccn1)C(=O)CO2` (stereo unspecified), `Cc1ccc2c(c1)N(CC(=O)NCc1ccco1)C(=O)C(C(C)C)O2` (stereo unspecified) is lower in solubility kinetic: > 48.8 µg/mL for the first, 22.8 µg/mL (≈ 66.6 µM) for the second.

Compared with `O=C1OCc2ccc(NC(=O)c3sccc3Cl)cc21`, `CN1CC(C(=O)Nc2ccc(F)c(Cl)c2)CC1=O` (stereo unspecified) is higher in solubility kinetic: < 0.6 µg/mL for the first, > 40.6 µg/mL for the second.

Going from `O=C(Nc1ccc(Cl)c(Cl)c1)NC1CCS(=O)(=O)C1` (stereo unspecified) to `O=C(NC1=NCCS1)c1ccc(Cl)c(Cl)c1`, the solubility kinetic falls from 43.9 µg/mL (≈ 136 µM) to 0.9 µg/mL (≈ 3.27 µM) (49-fold).

First: O=S(=O)(c1ccccc1)N1CCN(CCc2ccccc2)CC1
Second: O=C(NCC(=O)N1CCN(C/C=C/c2ccccc2)CC1)c1ccc(Br)cc1
The solubility kinetic of the first is 9.1-fold lower: 1.7 µg/mL (≈ 5.14 µM) for the first, 15.4 µg/mL (≈ 34.8 µM) for the second.

Going from `CC1=C(Nc2ccc(C(=O)O)cc2)C(=O)c2ccccc2C1=O` to `Cc1cccc(NC(=O)NC(=O)c2ccccc2)n1`, the solubility kinetic falls from > 46.1 µg/mL to 0.8 µg/mL (≈ 3.13 µM).

Going from `O=C(Nc1nc2cc3c(cc2s1)OCO3)c1ccco1` to `O=C(CCc1ccccc1)NCc1ccc2c(c1)OCO2`, the solubility kinetic rises from 1 µg/mL (≈ 3.47 µM) to > 42.5 µg/mL.

Compared with `CCOc1ccc(CC(=O)Nc2cc(=O)n(C)c(=O)n2C)cc1`, `Cc1ccc(OCC(O)Cn2nc(C)cc2C)cc1` (stereo unspecified) is higher in solubility kinetic: 4.8 µg/mL (≈ 15.1 µM) for the first, > 39.1 µg/mL for the second.

Going from `Cc1cccc2nc3c(nc12)CCCC3` to `Cc1cccc(N2C(=O)C3CCCN3C2=S)c1C` (stereo unspecified), the solubility kinetic rises from 6.4 µg/mL (≈ 32.3 µM) to 38.4 µg/mL (≈ 147 µM) (6-fold).

`CN1C(=O)NC(=O)/C(=C/c2ccc([N+](=O)[O-])o2)C1=O` and `CC1=C([N+](=O)[O-])C(c2ccccc2)NC(=O)N1` (stereo unspecified) cannot be ordered by solubility kinetic: > 39.8 µg/mL for the first, > 35 µg/mL for the second.

Compared with `N#C/C(=C\c1ccc(O)c(O)c1)C(=O)N1CCCC1`, `O=c1[nH]c(/C=C\c2ccc(O)c(O)c2)nc(O)c1[N+](=O)[O-]` is higher in solubility kinetic: 37.3 µg/mL (≈ 144 µM) for the first, > 43.7 µg/mL for the second.

`O=C(O)CC(SCC(=O)NC1CCCc2ccccc21)C(=O)O` (stereo unspecified) and `CCOc1ccccc1C(=O)NCC(=O)O` cannot be ordered by solubility kinetic: > 50.6 µg/mL for the first, > 33.5 µg/mL for the second.

Compared with `CC(=O)NCCC(=O)Nc1nc(-c2ccc3c(c2)OCCO3)cs1`, `O=C(COC(=O)C1CC1)Nc1ccc2c(c1)OCO2` is higher in solubility kinetic: 13.6 µg/mL (≈ 39.1 µM) for the first, > 39.5 µg/mL for the second.

First: CC1CCN(CC(C)OC(=O)c2ccco2)CC1.Cl (stereo unspecified)
Second: CC1CCC(NC(=O)C2COc3ccccc3O2)CC1 (stereo unspecified)
The solubility kinetic of the first is higher: > 43.2 µg/mL for the first, 5.5 µg/mL (≈ 20 µM) for the second.

`CCCC(=O)Nc1ccc2c(c1)nc(CCNC(=O)c1ccco1)n2C` and `COC(=O)c1cccc(NC(=O)CCc2c(C)noc2C)c1` cannot be ordered by solubility kinetic: > 53.2 µg/mL for the first, > 45.3 µg/mL for the second.

First: CCN(CC(=O)NCc1cccs1)C(=O)c1cc(=O)[nH]c2ccccc12
Second: O=C(/C=C/C(=O)NCc1cccs1)NCc1cccs1
The solubility kinetic of the first is higher: > 55.4 µg/mL for the first, 0.6 µg/mL (≈ 1.96 µM) for the second.

Compared with `C(=C\c1nc(-c2ccncc2)no1)/c1ccccc1`, `CCc1ccc(C(C)NC(=O)c2ccncc2)cc1` (stereo unspecified) is higher in solubility kinetic: 3.4 µg/mL (≈ 13.6 µM) for the first, > 38.1 µg/mL for the second.

`COc1ccc2[nH]cc(CCNC(=O)CCC3CCCCC3)c2c1` and `O=C(COC(=O)c1ccc[nH]c1=O)NCCC1=CCCCC1` are within 1.5-fold of each other in solubility kinetic: 29.9 µg/mL (≈ 91 µM) for the first, 41.1 µg/mL (≈ 135 µM) for the second.

Compared with `CCOC(=O)C1=C(CBr)NC(=O)NC1C` (stereo unspecified), `Cc1ccc(CC(=O)OCC(=O)c2ccc[nH]2)cc1C` is lower in solubility kinetic: > 41.6 µg/mL for the first, 10.9 µg/mL (≈ 40.2 µM) for the second.

`CC1CCCC(NC(=O)Cn2cc([N+](=O)[O-])ccc2=O)C1C` (stereo unspecified) and `CC(=O)c1ccc(NC(=O)C2CCCO2)cc1` (stereo unspecified) cannot be ordered by solubility kinetic: 44 µg/mL (≈ 143 µM) for the first, > 35 µg/mL for the second.

Compared with `C=CCn1c(=O)c(C(=O)NCc2ccc3c(c2)OCO3)c(O)c2ccccc21`, `Cc1ccc2c(c1)C(=O)C(=O)N2CC1COc2ccccc2O1` (stereo unspecified) is 15-fold higher in solubility kinetic: 1.3 µg/mL (≈ 3.44 µM) for the first, 19.5 µg/mL (≈ 63 µM) for the second.

Compared with `COc1ccc(NC(=O)c2ccc(NC(=O)c3ccncc3)cc2)cc1`, `COc1ccc(NC(=S)N(CCO)Cc2ccccc2)cc1` is 56-fold higher in solubility kinetic: 0.8 µg/mL (≈ 2.3 µM) for the first, 44.7 µg/mL (≈ 141 µM) for the second.

First: COc1ccc2c(c1)Sc1ccccc1N2
Second: O=C(Nc1ccccc1O)N1c2ccccc2Sc2ccccc21
The solubility kinetic of the first is higher: 2.7 µg/mL (≈ 11.8 µM) for the first, < 0.4 µg/mL for the second.

Going from `COc1ccccc1CCC(=O)OCC(=O)NCc1ccc(OC)c(OC)c1` to `COc1ccc(C(=O)O/N=C(\N)c2cccc(C)c2)cc1OC`, the solubility kinetic falls from > 58.1 µg/mL to 14.7 µg/mL (≈ 46.8 µM).

First: CCOc1ccccc1OCC(=O)Nc1nc2ccccc2[nH]1
Second: CCOn1c(=O)c(-c2ccc(F)cc2)[n+]([O-])c2ccccc21
The solubility kinetic of the first is 2.4-fold lower: 4.1 µg/mL (≈ 13.2 µM) for the first, 9.9 µg/mL (≈ 33 µM) for the second.

First: Cl.O=c1cc[nH]c2c1ccc1c(=O)cc[nH]c12
Second: CCc1ccc(Nc2nc(C)cc(C)n2)cc1.Cl
The solubility kinetic of the first is 1.9-fold higher: 34.6 µg/mL for the first, 18.4 µg/mL for the second.

`O=C(NCc1ccc(F)cc1)N1CCc2ccccc2C1` and `O=C(Cc1ccc(F)cc1)NCC1CCCO1` (stereo unspecified) cannot be ordered by solubility kinetic: 39.3 µg/mL (≈ 138 µM) for the first, > 35.6 µg/mL for the second.

`CCSC1=NCCN1C(=O)C(C)(C)Oc1ccc(Cl)cc1` and `Cc1ccc(CNC(=O)Nc2ccc(OC(F)(F)F)cc2)n1C` are within 1.5-fold of each other in solubility kinetic: 9.8 µg/mL (≈ 30 µM) for the first, 9.4 µg/mL (≈ 28.7 µM) for the second.

Going from `Cc1ccc(NC(=O)c2cc(-c3ccccc3)n(CCCN3CCOCC3)c2C)cc1` to `O=C(NCCN1CCOCC1)c1cc(-c2ccccc2Cl)on1`, the solubility kinetic rises from 19.9 µg/mL (≈ 47.7 µM) to > 50.4 µg/mL.

Going from `CCN(CC)C(=O)c1cc(Cl)ccn1` to `CCCCOc1ccc(C(=O)NCCc2cccs2)cc1`, the solubility kinetic falls from 26.8 µg/mL (≈ 126 µM) to 1.3 µg/mL (≈ 4.28 µM) (21-fold).

First: Cc1cc(C)n(CC(=O)N2CCc3ccccc32)c(=O)c1C#N
Second: COc1ccccc1N1CCN(CCCCN2C(=O)C3CCCCN3C2=O)CC1 (stereo unspecified)
The solubility kinetic of the first is 7.5-fold lower: 7 µg/mL (≈ 22.8 µM) for the first, 52.4 µg/mL (≈ 131 µM) for the second.

`C=CCn1c(C)nnc1SCC(=O)NC1CC1` and `O=C(CSc1ccc(-c2ccc(F)cc2)nn1)N1CCOCC1` cannot be ordered by solubility kinetic: > 37.9 µg/mL for the first, > 50 µg/mL for the second.

Going from `Cc1noc(C)c1COc1ccc(C(=O)N2CCC(C(N)=O)CC2)cc1` to `N#CCC(=O)N1CCN(Cc2ccc3c(c2)OCO3)CC1`, the solubility kinetic falls from > 53.6 µg/mL to 1.6 µg/mL (≈ 5.57 µM).

Reference: PubChem BioAssay AID1996
